Experimental data published in patent publication US9896662B2, “Process for enhancing stem cell bioactivity using tauroursodeoxycholic acid” (Pusan National University Industry—University Cooperation …, priority 2014, dated 2018).

Legend:
[1] = system: angiogenic stem cells and cell populations in peripheral blood; experiment: oral administration to healthy subjects: cell populations mobilized to peripheral blood; type: in vivo, human; conditions: 5 mg/kg oral for 3 days
Protocol: Upon oral administration of TUDCA to healthy subjects, angiogenic stem cells and various cell populations, which were mobilized to peripheral blood, were confirmed and differentiation potential into functional endothelial progenitor cells was verified using peripheral blood. 5 mg/kg of TUDCA was orally administered to healthy subjects for 3 days, and the expression of angiogenic stem cell markers was examined.

[2] = system: CD34+ cells on bone marrow stromal cells; experiment: adhesion and dissociation of CD34+ cells on bone marrow stromal cells (fluorescence microscope count); type: cell-based; conditions: TUDCA 50, 100 μM, incubated 1 hour, compared with the control
Protocol: When ischemic damage occurs, for vascular repair, a process in which angiogenic stem cells integrated with bone marrow stromal cells are dissociated from bone marrow and transported to ischemic tissue first occurs in the vascular repair mechanism. In order to confirm a change in dissociation of angiogenic stem cells from bone marrow stromal cells by TUDCA, CD34^+ cells stained with CM-DiI (staining red), which were treated with TUDCA (0, 50, 100 μM), were incubated for 1 hour on glass slides in which bone marrow stromal cells were seeded. The number of CD34^+ cells adhered to or dissociated from bone marrow stromal cells was counted by a fluorescence microscope (FIGS. 1a, 1b, and 1c). AMD3100, a CXCR4 antagonist, was used as a positive control.

CD34+ HSCs = experiment: EPC colony forming capability of CD34+ HSCs (differentiation into the EPC lineage); type: cell-based
Text: (§1) Meanwhile, in order to clarify the impact of TUDCA on CD34^+ HSC differentiation into the EPC lineage, the EPC colony forming capability of CD34^+ HSCs was examined. As a result, it was confirmed that the EPC colony forming capability was enhanced by TUDCA (FIG. 4e). Further, as Akt activation via PI3-kinase increases differentiation of CD34^+ HSCs into the EPC lineage, it was examined whether TUDCA activates Akt in CD34^+ HSC. As a result, it was confirmed that TUDCA increased Akt phosphorylation, and the exposure to LY294002, a PI3K inhibitor, inhibited TUDCA-mediated CD34^+ HSC differentiation into the EPC lineage (FIG. 4f).

[3] = system: leukocytes, lymphocytes, monocytes, and granulocytes in peripheral blood; experiment: complete blood cell (CBC) count; type: in vivo; conditions: oral, mice, 10 mg/kg for 3 days
Protocol: (§2) When TUDCA was orally administered, a variety of cell populations are mobilized to peripheral blood. After orally administering TUDCA to mice, the cell populations were analyzed by Hill's assay. As a result, it was confirmed that the number of angiogenic stem cells increased in TUDCA concentration and time-dependent manner (FIGS. 4a and 4b). In order to confirm side effects caused by mobilization of cell populations associated with immunity and inflammation, other than angiogenic stem cells, upon treatment with TUDCA, the change in the number of leukocytes, lymphocytes, monocytes, and granulocytes in peripheral blood was confirmed by complete blood cell (CBC) count. […] Also, it was confirmed that […] are EPCs by confirming the uptake of acetyl-LDL and FITC-isolectin B4 (FIG. 4d).

[4] = system: angiogenic stem cells (CD34+/Sca1+) in peripheral blood; experiment: FACS analysis of angiogenic stem cells in peripheral blood after oral administration; type: in vivo; conditions: 10 mg/kg oral, C57BL/6 mice, day 0, 1, 3
Protocol: (§3) In order to confirm mobilization capability of angiogenic stem cells, which were dissociated from bone marrow stromal cells, to peripheral blood, CD34^+ hematopoietic stem cells (HSCs) were treated with various concentrations of TUDCA (0, 10, 50, 100 μM), to confirm the cell migration capability by trans-well assay. […] Based on the result, TUDCA (10 mg/kg) was orally administered to C57BL/6 mice, and the number of angiogenic stem cells (CD34^+/Sca1^+) in peripheral blood were analyzed by FACS analysis over time (at day 0, 1, 3).

hindlimb ischemic tissue [5] = experiment: hindlimb ischemia model in GFP bone marrow-transplanted mice, oral TUDCA; type: in vivo, GFP-BMT mice (C57BL/6); conditions: 20 mg/kg oral, GFP-BMT mice
Text: It is known that angiogenic stem cells are mainly present in bone marrow, but they are present in different tissues than bone marrow. In order to confirm whether angiogenic stem cells are derived from bone marrow by TUDCA and involved in vascular repair mechanism, bone marrow was isolated from green fluorescent protein (GFP) mice and transplanted into C57BL/6. Once bone marrow transplantation (BMT) mice are thus prepared, chimeric mice which show green fluorescence only for bone marrow cells are obtained. After preparing hindlimb ischemia animal models using GFP-BMT mice, TUDCA (20 mg/kg) was orally administered to verify vascular repair capability. […] In order to confirm angiogenesis by TUDCA, hindlimb ischemic tissue was removed 14 days after the preparation of the hindlimb ischemia models and subjected to immunofluorescent staining, to verify capillary and arteriole density. […] In order to confirm whether angiogenic stem cells were mobilized by TUDCA from bone marrow to hindlimb ischemic tissue, mobilization capability of angiogenic stem cells was examined by immunofluorescent staining using a bone marrow marker GFP, an angiogenic stem cell marker c-kit, a vascular marker ILB4, into which hindlimb ischemic tissue removed from the hindlimb ischemia models was transplanted 3 days after the preparation. […] In order to examine whether angiogenic stem cells mobilized by TUDCA from bone marrow differentiate into new blood vessels in hindlimb ischemic tissue, vascular differentiation potential of angiogenic stem cells was examined, through immunofluorescent staining and morphological analysis, using a bone marrow marker GFP, a marker of vascular differentiation VEGFR, a vascular marker ILB4, into which hindlimb ischemic tissue removed from the hindlimb ischemia models was transplanted 14 days after the preparation.

[6] = system: Human arterial endothelial cells (HAECs) mixed with angiogenic stem cells; experiment: tube formation assay of HAECs mixed with angiogenic stem cells; type: cell-based; conditions: TUDCA 50 μM
Text: It is the most significant process in the vascular recovery mechanism that angiogenic stem cells mobilized from bone marrow are integrated with vascular endothelial cells preexisting in damaged tissue, to generate new blood vessels through interaction. Human arterial endothelial cells (HAECs) were mixed with angiogenic stem cells, and then the integration capability between the two cells was examined by tube formation assay.

[7] = system: angiogenic stem cells in peripheral blood; experiment: Hill's assay of cell populations mobilized to peripheral blood; type: in vivo; conditions: oral, mice; concentration and time-dependent
Protocol: as §2

angiogenic stem cells [8] = experiment: infiltration capability of angiogenic stem cells; type: cell-based; conditions: 50 μM of TUDCA
Protocol: (§4) In order to confirm that the treatment with TUDCA involves enhancement of biological activity functions of angiogenic stem cells in addition to enhancement of mobilization and migration capabilities of angiogenic stem cells from bone marrow to peripheral blood and ischemic tissue, angiogenic stem cells were treated with different concentrations (0, 10, 50, 100 μM) of TUDCA. Then, various biological activity functions were evaluated. […] In order to confirm vascular differentiation potential, tube-forming capability was examined.

hindlimb ischemic tissue [9] = experiment: mouse hindlimb ischemia model, oral TUDCA; type: in vivo; conditions: 20 mg/kg oral every day
Protocol: TUDCA was applied to mouse disease models based on the above experiments, to verify the effects. Mouse hindlimb ischemia model, which is one of the disease animals, for verifying vascular repair capability was prepared. Thereafter, 20 mg/kg of TUDCA was orally administered to mice every day, to confirm vascular repair capability over time. […] In order to confirm whether angiogenic stem cells were mobilized by TUDCA to hindlimb ischemic tissue, hindlimb ischemic tissue was removed 3 days after the preparation of the hindlimb ischemia models, and flow cytometry was performed using an angiogenic stem cell marker. As a result, it was confirmed that the number of angiogenic stem cells in ischemic tissue increased in the group to which TUDCA was orally administered (FIG. 7c). In order to confirm angiogenesis by TUDCA, hindlimb ischemic tissue was removed 14 days after the preparation of the hindlimb ischemia models and subjected to immunofluorescent staining, to verify capillary density and arteriole density.

[10] = system: CD34+ hematopoietic stem cells (HSCs); experiment: trans-well assay of cell migration capability; type: cell-based; conditions: TUDCA 0, 10, 50, 100 μM; concentration-dependent
Protocol: as §3

angiogenic stem cells [11] = experiment: proliferation capability of angiogenic stem cells; type: cell-based; conditions: 50 μM of TUDCA (tested 0, 10, 50, 100 μM)
Protocol: as §4

[12] = system: CD44, N-cadherin, c-kit, and LFA1 in HAECs; experiment: mRNA expression levels of cell adhesion molecules in HAECs; type: cell-based, Human
Text: (§5) Further, as the first step of integration with vascular endothelial cells is cell adhesion, mRNA expression levels of cell adhesion molecules in HAECs and EPCs were examined.

[13] = system: ICAM, Jagged1, N-cadherin, LFA1, and c-kit; experiment: mRNA expression of cell adhesion factors in CD34+ cells; type: cell-based; conditions: TUDCA 50 μM for 5 hours
Protocol: Based thereon, a change in mRNA expression of cell adhesion factors involved in cell adhesion was confirmed. After treating CD34^+ cells with TUDCA (50 μM) for 5 hours, mRNA expression of ICAM, Jagged′, N-cadherin, LFA1, and c-kit, which are involved in cell adhesion, was confirmed.

[14] = system: senescent angiogenic stem cells (passages 13 to 16); experiment: β-galactosidase staining of senescent angiogenic stem cells; type: cell-based
Protocol: In order to use stem cells as a stem cell therapy product, it is important to obtain a sufficient number of stem cells in a healthy state. However, upon in vitro expansion of stem cells for obtaining a sufficient number of stem cells, repeated passages cause senescence of stem cells. In order to resolve this problem, angiogenic stem cells subjected to repeated passages (passages 13 to 16) were treated with TUDCA, to verify senescence inhibition. Senescent angiogenic stem cells were treated with TUDCA and subjected to β-galactosidase staining capable of confirming senescence, to confirm senescence recovery.

[15] = system: CD44, Jagged-1, N-cadherin, VLA5, CXCR4, c-kit, and Notch in EPCs; experiment: mRNA expression levels of cell adhesion molecules in EPCs; type: cell-based
Text: as §5

[16] = system: senescent angiogenic stem cells; experiment: nitric oxide and reactive oxygen species in senescent angiogenic stem cells; type: cell-based; conditions: senescent angiogenic stem cells treated with TUDCA
Akt = Akt activation in CD34+ HSC; type: cell-based
Text: as §1

angiogenic stem cells [17] = experiment: tube-forming capability of angiogenic stem cells; type: cell-based; conditions: TUDCA 0, 10, 50, 100 μM; concentration-dependent
Protocol: as §4

[18] = day 14, immunofluorescent staining

C[C@H](CCC(=O)NCCS(=O)(=O)O)[C@H]1CC[C@H]2[C@@H]3[C@@H](O)C[C@@H]4C[C@H](O)CC[C@]4(C)[C@H]3CC[C@]12C [TUDCA, tauroursodeoxycholic acid]
significantly decreased: distribution of granulocytes involved in inflammatory response [1] | number of CD34+ cells adhered to the stromal cells [2] | number of granulocytes involved in inflammatory response [3] | mRNA expression of cell adhesion factors (ICAM, Jagged1, N-cadherin, LFA1, c-kit) [13] | expression amount of reactive oxygen species [16]
increased: number of angiogenic stem cells (Hill's assay) [7] | number of angiogenic stem cells in ischemic tissue (flow cytometry) (hindlimb ischemic tissue [9]; day 3) | Akt phosphorylation (Akt)
significantly improved: blood flow (LDPI assay) (hindlimb ischemic tissue [5])
most significantly increased: infiltration capability of angiogenic stem cells (angiogenic stem cells [8]) | proliferation capability of angiogenic stem cells (angiogenic stem cells [11])
significantly increased: colony forming capability (EPC-CFA) [1] | expression of angiogenic stem cell markers CD34, CD31, and c-kit [1] | number of CD34+ cells dissociated from the stromal cells [2] | number of angiogenic stem cells (CD34+/Sca1+) in peripheral blood [4] | number of angiogenic stem cells derived from bone marrow into ischemic tissue (hindlimb ischemic tissue [5]; day 3, GFP/c-kit/ILB4 staining) | number of arterioles (hindlimb ischemic tissue [5]; day 14) | number of capillaries (hindlimb ischemic tissue [5]; day 14) | number of bone marrow-derived angiogenic stem cells differentiated into vascular endothelial cells (hindlimb ischemic tissue [5]; day 14, GFP/VEGFR/ILB4 staining) | tube formation capability [6] | blood flow improvement (LDPI assay) (hindlimb ischemic tissue [9]) | number of arterioles (hindlimb ischemic tissue [9]; [18]) | number of capillaries (hindlimb ischemic tissue [9]; [18]) | migration capability of CD34+ cells [10] | mRNA expression levels of CD44, N-cadherin, c-kit, and LFA1 [12] | number of β-galactosidase positive cells [14] | mRNA expression levels of CD44, Jagged-1, N-cadherin, VLA5, CXCR4, c-kit, and Notch [15] | expression amount of nitric oxide [16] | tube-forming capability of angiogenic stem cells (angiogenic stem cells [17])
enhanced: EPC colony forming capability of CD34+ HSCs (CD34+ HSCs)
